Measured values from publication PMC6615261, “Repurposing Azithromycin and Rifampicin Against Gram-Negative Pathogens by Combination With Peptidomimetics” (Frontiers in Cellular and Infection Microbiology, 2019).

Assays:
[1] = test system: P. aeruginosa ATTC 27853; details: P. aeruginosa ATTC 27853; growth-curve assay
Experimental: (§1) Minimal inhibitory concentrations (MICs) of peptidomimetics, antibiotics and their combinations were determined by broth microdilution according to the Clinical Laboratory Standards Institute performance standards (Clinical and Laboratory Standards Institute, [2013]). […] Since rifampicin and azithromycin mainly are used to treat infections with Gram-positive pathogens only CLSI clinical breakpoints were available for such bacteria. […] Potentiation of additional antibiotics by peptidomimetics was determined by using commercial 96-well plates containing varied concentrations of standard antibiotics (COMPAN1F; Trek Diagnostic Systems Inc.). The peptidomimetics were added immediately prior to inoculation with pathogen, and then MICs were determined as above. The MICs of peptidomimetic/antibiotic combinations were determined according to the method above, and the concentration ratios were selected based upon checkerboard results with 2:1 and 1:4 ratio of peptidomimetic with rifampicin or azithromycin, respectively. Minimal bactericidal concentrations (MBCs) were determined by using growth-curve assay plates. MIC plates were prepared as above, and then the plates were incubated at 37°C with continuous shaking. Growth was recorded at 10 min intervals as optical density (OD) at 600 nm during 24 h. At 24 h, for wells without growth, a sample was diluted 10-fold in sterile saline (0.9% sodium chloride) and plated onto MHA, following CLSI guidelines (Clinical and Laboratory Standards Institute, [1999]).

[2] = test system: E. coli ST131; details: E. coli ST131; growth-curve assay
Experimental: as §1

[3] = test system: K. pneumoniae ST258; details: K. pneumoniae ST258; growth-curve assay
Experimental: as §1

[4] = test system: P. aeruginosa clinical isolates and reference strains; experiment: MIC of fixed-ratio peptidomimetic 1-antibiotic combinations in clinical isolates and reference strains; type: cell-based, Pseudomonas aeruginosa; details: with 1–8 μM of 1
Source text: (§2) Bacterial strains used in this study comprise MDR clinical isolates of E. coli ST131 (Cerquetti et al., [2010]) and K. pneumoniae ST258 (Jana et al., [2017]), and American type culture collection (ATCC) strains: ATCC 25922 (E. coli), ATCC 13883 (K. pneumoniae), and ATCC 27853 (P. aeruginosa). Additional clinical isolates of E. coli, K. pneumoniae, and P. aeruginosa resistant to β-lactams (including carbapenems and cephalosporins) were provided by Laurent Poirel, Université de Fribourg, Switzerland. The following growth media was routinely used for bacterial culturing: Luria-Burtani (LB), cation-adjusted Mueller-Hinton agar (MHA) and broth (MHB II). All assays were performed in cation-adjusted MHA or MHB II. Antibiotics were purchased from Sigma-Aldrich and the peptidomimetic collection (Table S1) was curated and provided by Henrik Franzyk. […]
(§3) Minimal inhibitory concentrations (MICs) of peptidomimetics, antibiotics and their combinations were determined by broth microdilution according to the Clinical Laboratory Standards Institute performance standards (Clinical and Laboratory Standards Institute, [2013]). […] Potentiation of additional antibiotics by peptidomimetics was determined by using commercial 96-well plates containing varied concentrations of standard antibiotics (COMPAN1F; Trek Diagnostic Systems Inc.). The peptidomimetics were added immediately prior to inoculation with pathogen, and then MICs were determined as above. The MICs of peptidomimetic/antibiotic combinations were determined according to the method above, and the concentration ratios were selected based upon checkerboard results with 2:1 and 1:4 ratio of peptidomimetic with rifampicin or azithromycin, respectively. Minimal bactericidal concentrations (MBCs) were determined by using growth-curve assay plates. […] Growth was recorded at 10 min intervals as optical density (OD) at 600 nm during 24 h. […]

[5] = test system: P. aeruginosa ATCC 27853; details: P. aeruginosa ATCC 27853; checkerboard
Experimental: (§4) The potential synergistic effects in peptidomimetic-antibiotic combinations were assessed by using a two-dimensional checkerboard assay (Garcia, [2010]). Briefly, twofold dilutions of peptide and antibiotic were prepared in MBH II media along the X- and Y-axis, respectively, in 96-well plates. The inoculum was added to the plates, and subsequently these were incubated for 18–20 h. All steps for inoculum preparation and broth microdilution were in accordance with the CLSI guidelines (Clinical and Laboratory Standards Institute, [2013]). The fractional inhibitory concentration index (FICI) was calculated as [MICA(A+B)/MICA(alone)] + [MICB(A+B)/MICB(alone)], where MICA(A+B) represents the MIC of antibiotic (A) in combination with peptidomimetic (B), while MICB(A+B) represents the MIC of peptidomimetic (B) in combination with antibiotic (A). MICA(alone) and MICB(alone) represent the MIC of each compound individually. FICI values of ≤0.5 were interpreted as synergy.

[6] = test system: E. coli ST131; details: checkerboard
Experimental: as §4

[7] = test system: K. pneumoniae ST258; details: checkerboard
Experimental: as §4

[8] = test system: E. coli clinical isolates and reference strains; experiment: MIC of fixed-ratio peptidomimetic 1-antibiotic combinations in clinical isolates and reference strains; type: cell-based, Escherichia coli; details: in combination with 0.5–1 μM peptidomimetic 1
Source text: as §2, §3

MIC (antibiotic alone) [1]: >128 µg/mL | MIC (antibiotic alone) [2]: 8 µg/mL | MIC (antibiotic alone) [3]: >32 µg/mL | MIC of antibiotic in combination, P. aeruginosa isolates (typical) [4]: 4 to 8 µg/mL | Antibiotic MIC alone [5]: >128 µg/mL | Antibiotic MIC alone [6]: 8 µg/mL | Antibiotic MIC alone [7]: 32 µg/mL
Structure (SMILES): CC[C@H]1OC(=O)[C@H](C)[C@@H](O[C@H]2C[C@@](C)(OC)[C@@H](O)[C@H](C)O2)[C@H](C)[C@@H](O[C@@H]2O[C@H](C)C[C@H](N(C)C)[C@H]2O)[C@](C)(O)C[C@@H](C)CN(C)[C@H](C)[C@@H](O)[C@]1(C)O [Azithromycin, azithromycin]
MBC (antibiotic alone) [1]: >128 µg/mL | MBC (antibiotic alone) [2]: >16 µg/mL | MBC (antibiotic alone) [3]: >32 µg/mL | Antibiotic concentration to which most E. coli isolates proved susceptible in combination [8]: 2 to 4 µg/mL
